In patent US20040259948A1, “Reciprocal regulation of inflammation and lipid metabolism by liver X receptors” (priority 2003, published 2004):

What was measured:
Format in all cases: cell-based
[1] = test system: human peripheral blood mononuclear cells; experiment: TNF-induced gene expression in human peripheral blood mononuclear cells; conditions: TNF 6 hours; real time qPCR
Protocol: Activation of LXR by synthetic ligands inhibits inflammatory gene expression in multiple human cell types (FIG. 7A-C). TNFα plays a role in the induction of inflammatory mediators in during inflammation. Cells were treated for 6 hours with TNF as indicated and gene expression was measured by real time qPCR.

[2] = test system: Thioglycolate-elicited murine peritoneal macrophages; experiment: Expression of NF-κB target genes in LPS-treated macrophages (northern blot, real-time quantitative PCR)
Protocol: LPS is an established inducer of the NF-κB signaling pathway in macrophages. Several genes inhibited by LXR ligands in the array studies above are established targets of NF-κB. To further investigate the role of LXRs in NF-κB-dependent gene expression, we analyzed expression of NF-κB target genes in peritoneal macrophages from wild-type mice. […] Expression of NF-κB target genes was determined by northern blot (A) or by real-time quantitative PCR assays (B). 36B4 was used as a control for RNA loading and integrity. […] RNA and protein analysis. Total RNA was extracted using Trizol reagent (Life Technologies, Inc.). Northern blot analysis was carried out as described using radiolabeled cDNA probes (Tontonoz, P. et al. 1998 Cell 93:241-252). Real-time quantitative PCR (TaqMan) analysis was performed using an Applied Biosystems 7700 sequence detector. Two-step real-time PCR was performed as described (Joseph, S. B. et al. 2002 J Biol Chem 277:11019-11025). The primers and probes used are as follows: […]

LXRα/RXRα = target: T1, LXRα/RXRα (Homo sapiens, UniProt Q13133); experiment: Luciferase reporter transfection in RAW 264.7 cells, LXRα/RXRα; conditions: 2 μM
T1 construct: expressed in transfected cells; host or cells: RAW 264.7
T1 sequence (Q13133 1-447): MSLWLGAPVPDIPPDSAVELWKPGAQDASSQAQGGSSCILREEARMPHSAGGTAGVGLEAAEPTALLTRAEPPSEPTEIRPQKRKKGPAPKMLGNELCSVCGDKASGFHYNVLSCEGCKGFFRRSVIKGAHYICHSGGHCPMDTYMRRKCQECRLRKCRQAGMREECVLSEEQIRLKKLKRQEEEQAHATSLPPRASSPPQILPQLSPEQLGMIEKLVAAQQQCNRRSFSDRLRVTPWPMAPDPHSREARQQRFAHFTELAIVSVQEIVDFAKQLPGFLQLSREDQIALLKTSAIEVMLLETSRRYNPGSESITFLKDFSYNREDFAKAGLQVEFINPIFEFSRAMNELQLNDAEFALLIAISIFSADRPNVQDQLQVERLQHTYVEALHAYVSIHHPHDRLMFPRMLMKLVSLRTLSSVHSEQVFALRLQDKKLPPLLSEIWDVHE
T1 sequence (P19793 1-462 partner): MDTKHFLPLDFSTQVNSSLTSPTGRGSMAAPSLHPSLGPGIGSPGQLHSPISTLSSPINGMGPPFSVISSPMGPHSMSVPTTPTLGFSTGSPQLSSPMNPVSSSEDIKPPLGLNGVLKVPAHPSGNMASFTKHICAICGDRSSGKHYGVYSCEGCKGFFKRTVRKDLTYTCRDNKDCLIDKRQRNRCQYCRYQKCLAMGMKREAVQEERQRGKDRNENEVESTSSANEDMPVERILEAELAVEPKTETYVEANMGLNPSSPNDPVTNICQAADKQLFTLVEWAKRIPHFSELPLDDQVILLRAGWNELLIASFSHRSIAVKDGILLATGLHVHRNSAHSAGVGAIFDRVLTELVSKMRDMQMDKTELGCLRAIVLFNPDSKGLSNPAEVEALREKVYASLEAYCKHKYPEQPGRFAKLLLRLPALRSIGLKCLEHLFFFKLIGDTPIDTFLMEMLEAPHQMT
Protocol: We next investigated the mechanism by which LXR inhibits iNOS and COX-2 expression. […] RAW 264.7 cells were transfected with expression vectors for either LXRα/RXRα or LXRβ/RXRα along with luciferase reporter constructs. The LXR agonist inhibited expression of both iNOS and COX-2 gene promoters in a receptor-dependent fashion (FIG. 4 A and B). […] E, A dominant-negative IKK expression vector (IKK DN) blocks LXR-dependent repression of the COX-2 promoter. Transfected cells were treated with DMSO (ctrl), GW3965 (GW), LPS, or GW3965 and LPS. […] RAW 264.7 cells were transiently transfected with expression vectors for LXRα/RXRα, LXRβ/RXRα or dominant-negative I kappa B kinase (IKK) along with iNOS (A), COX-2 (B, E, F), NF-κB (C), AP-1 (D) or COX-2/NF-κB mutant (F) luciferase reporters. […] As activation of iNOS and COX-2 gene promoters by LPS is known to depend on interactions between AP-1 and NF-κB transcription factors, the effect of LXR on minimal promoters containing binding sites for these factors was evaluated. […] Moreover, the inhibitory effect of LXR on the COX-2 promoter was lost when NF-κB activity was blocked by transfection of a dominant-negative IKK or when binding sites for NF-κB were mutated (FIGS. 4E and F). These observations indicate that inhibition of inflammatory gene expression by LXR ligands involves antagonism of NF-κB signaling.
Reagents and plasmids. […] Oxysterols, LDL and ox-LDL were from Sigma and Intracell, respectively. LPS from Salmonella typhimurium was from Sigma. Expression plasmids for LXRα, LXRβ and IKK-DN (Castrillo, A. et al. 2001 J Biol Chem 276:15854-15860; Laffitte, B. A. et al. 2001 Mol Cell Biol 21:7558-7568), and reporter plasmids for NOS-2, (NFκB)3-LUC, (AP-1)4-LUC and COX-2 have been described (Callejas, N. A. et al. 2000 Gastroenterology 119:493-501).
Cell culture and transfections. Thioglycolate-elicited peritoneal macrophages were cultured in RPMI containing 10% fetal bovine serum (FBS). RAW 264.7 cells were cultured in DMEM containing 10% FBS. For ligand treatments, cells were in cultured medium supplemented with 5% lipoprotein-deficient serum (LPDS) and ligands for 18 h before stimulation. Bacterial infection in vitro was performed as described (Chen, L. M. et al. 1996 Mol Microbiol 21:1101-1115). Transient transfections of RAW 264.7 cells were performed in triplicate in 48-well plates using Superfect reagent (Life Technologies). After transfection, cells were incubated in medium containing 10% LPDS and the indicated ligands for 18 h before stimulation with LPS for an additional 18 h. Luciferase activity was normalized to β-galactosidase activity. NO production was determined spectrophotometrically (Castrillo, A. et al. 2000 Mol Cell Biol 20:1692-1698).

[3] = pretreated 18 h, 100 ng/ml LPS 3 h and 6 h, northern blot
[4] = pretreated 18 h, 100 ng/ml LPS 6 h, real-time quantitative PCR

receptor-independent induction of IL-6 [2]: modest receptor-independent induction | receptor-independent induction of MCP-1 [2]: modest receptor-independent induction | IL1-receptor antagonist (IL-1RN) expression [2, 4]: effective inhibitors | induction of the COX-2 promoter by LPS (luciferase reporter) (LXRα/RXRα): inhibits induction | induction of the iNOS promoter by LPS (luciferase reporter) (LXRα/RXRα): inhibits induction | luciferase reporter containing multiple NF-κB binding sites (LXRα/RXRα; LPS): inhibits expression | COX-2 luciferase reporter lacking the NF-κB binding site (LXRα/RXRα; LPS, COX-2/NF-κB mutant): fails to inhibit | inhibitory effect on the COX-2 promoter with dominant-negative IKK (LXRα/RXRα; LPS, IKK-DN co-transfected, LXR vector not specified): lost
Structure (SMILES): O=C(O)Cc1cccc(OCCCN(Cc2cccc(C(F)(F)F)c2Cl)CC(c2ccccc2)c2ccccc2)c1 [GW3965]
TNF-induced gene expression [1]: inhibited | iNOS mRNA expression ([2]; LPS, FIG. 3a, receptor-dependent): inhibition | COX-2 expression [2, 3]: effective inhibitors | lκBα expression [2, 3]: effective inhibitors | IL-1β expression [2, 4]: effective inhibitors | IL-6 expression [2, 4]: effective inhibitors | MCP-1 expression [2, 4]: effective inhibitors
